Reference: publication PMC7802075 (ACS Infectious Diseases, 2020)
Where two headings read alike, the source gives them in different places. Where a SMILES comes first, the peptide text is derived from it. The star is where a group is joined. For = O=C*

Target: T1, LmjIPCS (inositol phosphorylceramide synthase from L. major) (Leishmania major, UniProt E9AFX2)
T1 sequence (E9AFX2 1-338): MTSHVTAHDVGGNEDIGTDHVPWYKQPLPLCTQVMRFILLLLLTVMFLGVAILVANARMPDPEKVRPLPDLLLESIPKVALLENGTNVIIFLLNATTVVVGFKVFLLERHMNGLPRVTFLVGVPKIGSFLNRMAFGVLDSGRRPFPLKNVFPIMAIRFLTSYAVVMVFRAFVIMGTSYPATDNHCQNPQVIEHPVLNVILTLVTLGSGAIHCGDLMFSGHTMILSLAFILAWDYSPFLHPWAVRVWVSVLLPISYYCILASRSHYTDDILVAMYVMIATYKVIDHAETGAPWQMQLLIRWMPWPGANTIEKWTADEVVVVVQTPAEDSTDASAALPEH
Test: biochemical
Format: biochemical
Parameters: inhibition: dose or concentration left out as unconfirmed
Settings: for inhibition at 20000 µM: read-out: 20mM inhibition LmjIPCS; for inhibition: read-out: inhibition LmjIPCS

[1] = NINDS set screen, single concentration printed as 20mM
[2] = screening of NINDS set, sheet Screen 1
[3] = NINDS set screen, compound at 20mM (so in the source)

## Cc1ccccc1N1C(=O)c2cc(S(N)(=O)=O)c(Cl)cc2NC1C (centres unmarked) [METOLAZONE]
  20mM inhibition LmjIPCS: 50%

## COCCc1ccc(OCC(O)CNC(C)C)cc1 (centres unmarked) [METOPROLOL]
  inhibition at 20000 µM: 21%

## Cc1ncc([N+](=O)[O-])n1CCO [METRONIDAZOLE]
  inhibition: 7%

## COc1ccc2[nH]cc(CCN)c2c1 [MEXAMINE]
  20mM inhibition LmjIPCS: 25%

## COc1ccc(OC)c(C(O)CNC(=O)CN)c1 (centres unmarked) [MIDODRINE]
  inhibition at 20000 µM: 13%

## OCCN1C[C@H](O)[C@@H](O)[C@H](O)[C@H]1CO [MIGLITOL]
  inhibition at 20000 µM: -0.821%

## NC(Cn1ccc(=O)c(O)c1)C(=O)O (centres unmarked) [MIMOSINE]
  inhibition at 20000 µM: 3%

## Cc1cc(-c2ccccc2)nnc1NCCN1CCOCC1 [MINAPRINE]
NINDS set screen
  inhibition: 25%

## Nc1cc(N2CCCCC2)nc(N)[n+]1[O-] [MINOXIDIL]
  inhibition: 15%

## O=C1c2c(O)ccc(O)c2C(=O)c2c(NCCNCCO)ccc(NCCNCCO)c21 [MITOXANTHRONE]
[1]
  20mM inhibition LmjIPCS: 63%

## NC(=O)c1ncn([C@@H]2O[C@H](CO)[C@@H](O)[C@H]2O)c1O [MIZORIBINE]
  inhibition at 20000 µM: 6.58%

## NC(=O)C[S+]([O-])C(c1ccccc1)c1ccccc1 (centres unmarked) [MODAFINIL]
  inhibition at 20000 µM: 13%

## CCOC(=O)[N-]c1cn(N2CCOCC2)n[o+]1 [MOLSIDOMINE]
  inhibition at 20000 µM: -0.951%

## CC[C@@]1([C@@H]2O[C@@H]([C@H]3O[C@@](O)(CO)[C@H](C)C[C@@H]3C)C[C@@H]2C)CC[C@H]([C@]2(C)CC[C@]3(C[C@H](O)[C@@H](C)[C@@H]([C@@H](C)[C@@H](OC)[C@H](C)C(=O)O)O3)O2)O1 [MONENSIN]
  inhibition at 20000 µM: 0.265%

## C[C@H]1C(=O)O[C@@H]2CCN3CC=C(COC(=O)[C@](C)(O)[C@]1(C)O)[C@H]23 [MONOCROTALINE]
  inhibition at 20000 µM: 2%

## Cc1ccsc1/C=C/C1=NCCCN1C [MORANTEL]
  20mM inhibition LmjIPCS: 60%

## O=c1c(O)c(-c2ccc(O)cc2O)oc2cc(O)cc(O)c12 [MORIN]
  inhibition at 20000 µM: 4%

## CO[C@@]1(NC(=O)C(C(=O)O)c2ccc(O)cc2)C(=O)N2C(C(=O)O)=C(CSc3nnnn3C)CO[C@@H]21 (some centres unmarked) [MOXALACTAM]
  inhibition at 20000 µM: 10%

## COc1c(N2C[C@@H]3CCCN[C@@H]3C2)c(F)cc2c(=O)c(C(=O)O)cn(C3CC3)c12 [MOXIFLOXACIN]
  inhibition at 20000 µM: 16%

## COc1c(C)c2c(c(O)c1C/C=C(\C)CCC(=O)O)C(=O)OC2 [MYCOPHENOLIC ACID]
  inhibition: 4%

## N=C(NCCC[C@H](N)C(=O)O)N[N+](=O)[O-] [N (g)-NITRO-L-ARGININE]
  20mM inhibition LmjIPCS: 1.68%

## N=C(N)NC(=O)c1nc(Cl)c(N2CCCCCC2)nc1N [N,N-HEXAMETHYLENEAMILORIDE]
[1]
  20mM inhibition LmjIPCS: 65%

## CC(=O)N1CCCC1C(=O)O (centres unmarked) [N-ACETYLPROLINE]
NINDS set screen
  inhibition: -1.28%

## CC(=O)N[C@@H](CC(=O)O)C(=O)O [N-ACET[…]]
  inhibition at 20000 µM: -3%

## CSCC[C@H](NC=O)C(=O)N[C@@H](Cc1ccccc1)C(=O)O [N-FORMYLMETHIONYLPHENYLALANINE] (For-Met-Phe-OH)
Single concentration 20mM as printed, screening of NINDS set, sheet Screen 1
  20mM inhibition LmjIPCS: 5.35%

## O=C(NCO)c1cccnc1 [N-HYDROXYMETHYLNICOTINAMIDE]
NINDS set screen
  inhibition: 12%

## COc1ccc2cc(CCC(C)=O)ccc2c1 [NABUMETONE]
NINDS set screen
  inhibition: 12%

## CC(C)(C)NCC(O)COc1cccc2c1CC(O)C(O)C2 (centres unmarked) [NADOLOL]
[2]
  inhibition: 9%

## CCOc1ccc2ccccc2c1C(=O)N[C@@H]1C(=O)N2[C@@H]1SC(C)(C)[C@@H]2C(=O)O [NAFCILLIN]
  inhibition at 20000 µM: 4.73%

## CCN(CC)CCOC(=O)C(Cc1cccc2ccccc12)CC1CCCO1 (centres unmarked) [NAFRONYL]
  20mM inhibition LmjIPCS: 46%

## CCn1cc(C(=O)O)c(=O)c2ccc(C)nc21 [NALIDIXIC ACID]
  inhibition at 20000 µM: -11%

## O=C1CC[C@@]2(O)[C@H]3Cc4ccc(O)c5c4[C@@]2(CCN3CC2CC2)[C@H]1O5 [NALTREXONE]
  inhibition: 8%

## c1ccc2c(CC3=NCCN3)cccc2c1 [NAPHAZOLINE]
  inhibition at 20000 µM: 28%

## COc1ccc2cc([C@H](C)C(=O)O)ccc2c1 [NAPROXEN(+)]
[3]
  20mM inhibition LmjIPCS: 18%

## COc1ccc2cc([C@H](C)CO)ccc2c1 [NAPROXOL]
[2]
  inhibition: 4.4%

## CC[C@@H](C(=O)O)[C@@H]1O[C@@H]([C@@H](C)[C@H](O)[C@H](C)C(=O)[C@H](CC)[C@H]2O[C@]3(C=C[C@@H](O)[C@]4(CC[C@@](C)([C@H]5CC[C@](O)(CC)[C@H](C)O5)O4)O3)[C@H](C)C[C@@H]2C)[C@@H](C)C[C@@H]1C [NARASIN]
  inhibition at 20000 µM: -0.161%

## O=C1C[C@@H](c2ccc(O)cc2)Oc2cc(O)cc(O)c21 [NARINGENIN]
  inhibition: 17%

## C[C@@H]1O[C@@H](O[C@H]2[C@H](Oc3cc(O)c4c(c3)O[C@H](c3ccc(O)cc3)CC4=O)O[C@H](CO)[C@@H](O)[C@@H]2O)[C@H](O)[C@H](O)[C@H]1O [NARINGIN]
  inhibition at 20000 µM: 4.67%

## CC(C)[C@H]1CC[C@H](C(=O)N[C@H](Cc2ccccc2)C(=O)O)CC1 [NATEGLINIDE]
[2]
  inhibition: 7%

## CN1CCOC(c2ccccc2)c2ccccc2C1 (centres unmarked) [NEFOPAM]
  20mM inhibition LmjIPCS: 68%

## COc1ccc(CCC(=O)c2c(O)cc(O[C@@H]3O[C@H](CO)[C@@H](O)[C@H](O)[C@H]3O[C@@H]3O[C@@H](C)[C@H](O)[C@@H](O)[C@H]3O)cc2O)cc1O [NEOHESPERIDIN DIHYDROCHALCONE]
[3]
  20mM inhibition LmjIPCS: 15%

## CN(C)C(=O)Oc1cccc([N+](C)(C)C)c1 [NEOSTIGMINE BROMIDE]
  inhibition at 20000 µM: 20%

## CC(C)=CCC/C(C)=C\CO [NEROL]
  inhibition: 33%

## O=C(O)c1cccnc1 [NIACIN]
  inhibition at 20000 µM: 15%

## COC(=O)C1=C(C)NC(C)=C(C(=O)OCCN(C)Cc2ccccc2)C1c1cccc([N+](=O)[O-])c1 (centres unmarked) [NICARDIPINE]
  inhibition: -15%

## CN1CCC[C@H]1c1cccnc1 [NICOTINE]
  inhibition at 20000 µM: 10%

## O=C(O)C(O)C(O)C(=O)O.OCc1cccnc1 (centres unmarked) [NICOTINYL]
  20mM inhibition LmjIPCS: 6%

## Cc1c(NC(=O)c2cccnc2)c(=O)n(-c2ccccc2)n1C [NIFENAZONE]
  inhibition: 11%

## CO[C@@H]1C[C@@H](C[C@H]2CC[C@H](C)[C@H]([C@@H](C)C(=O)O)O2)O[C@]2(O[C@](C)([C@H]3CC[C@@](C)([C@@H]4O[C@@H]([C@H]5O[C@@](O)(CO)[C@H](C)C[C@@H]5C)C[C@@H]4C)O3)C[C@H]2C)[C@@H]1C [NIGERICIN]
  inhibition at 20000 µM: -7.41%

## CC1(C)NC(=O)N(c2ccc([N+](=O)[O-])c(C(F)(F)F)c2)C1=O [NILUTAMIDE]
  inhibition at 20000 µM: 4%

## CS(=O)(=O)Nc1ccc([N+](=O)[O-])cc1Oc1ccccc1 [NIMESULIDE]
  inhibition at 20000 µM: 11%

## COCCOC(=O)C1=C(C)NC(C)=C(C(=O)OC(C)C)C1c1cccc([N+](=O)[O-])c1 (centres unmarked) [NIMODIPINE]
  20mM inhibition LmjIPCS: 36%

## Cc1ncc(CNC(=O)N(CCCl)N=O)c(N)n1 [NIMUSTINE]
  inhibition at 20000 µM: 20%

## CCOC(=O)C1=C(C)NC(C)=C(C(=O)OC)C1c1cccc([N+](=O)[O-])c1 (centres unmarked) [NITRENDIPINE]
  20mM inhibition LmjIPCS: 39%

## NC(=O)N/N=C/c1ccc([N+](=O)[O-])o1 [NITROFURAZONE]
  inhibition at 20000 µM: 14%

## NC(=O)c1cc([N+](=O)[O-])cc([N+](=O)[O-])c1 [NITROMIDE]
  20mM inhibition LmjIPCS: 9%

## CN1Cc2c(N)cccc2C(c2ccccc2)C1 (centres unmarked) [NOMIFENSINE]
  inhibition: 5%

## O=C1OC(=O)[C@H]2[C@@H]1[C@@H]1CC[C@H]2O1 [NORCANTHARIDIN]
  20mM inhibition LmjIPCS: 1.76%

## NC[C@H](O)c1ccc(O)c(O)c1 [NOREPINEPHRINE]
  inhibition at 20000 µM: 12%
